# Test results published in paper PMC2151634 (The Journal of General Physiology, 2007).
# Biological target: T1, P2X2 receptor (Rattus norvegicus, UniProt P49653)
# T1 sequence (P49653 1-472): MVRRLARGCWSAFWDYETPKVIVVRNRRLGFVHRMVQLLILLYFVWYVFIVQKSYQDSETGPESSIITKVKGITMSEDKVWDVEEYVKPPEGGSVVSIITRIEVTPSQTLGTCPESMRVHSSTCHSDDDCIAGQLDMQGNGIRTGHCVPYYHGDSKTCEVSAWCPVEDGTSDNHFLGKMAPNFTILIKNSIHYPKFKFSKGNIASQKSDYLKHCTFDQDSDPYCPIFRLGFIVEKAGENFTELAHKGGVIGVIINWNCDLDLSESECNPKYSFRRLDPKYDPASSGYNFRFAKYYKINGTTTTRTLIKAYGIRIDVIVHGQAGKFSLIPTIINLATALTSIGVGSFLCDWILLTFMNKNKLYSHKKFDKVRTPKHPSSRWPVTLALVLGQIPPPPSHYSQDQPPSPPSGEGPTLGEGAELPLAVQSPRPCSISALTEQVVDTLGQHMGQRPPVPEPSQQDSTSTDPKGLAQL
# Experiment: outside-out patch clamp, peak current, 2-s ATP pulses
# Format: cell-based
smiles,measurement,value
Nc1ncnc2c1ncn2[C@@H]1O[C@H](COP(=O)(O)OP(=O)(O)OP(=O)(O)O)[C@@H](O)[C@H]1O [ATP],EC50,9.8 µM
